Reference: the supplement of paper PMC10307832

What was measured:
Assay in all cases: relative viability (nuclei count vs DMSO), 5 days (fraction); higher = more cells survive
Sunitinib + Crizotinib = compound: CCN(CC)CCNC(=O)c1c(C)[nH]c(/C=C2\C(=O)Nc3ccc(F)cc32)c1C [Sunitinib] + C[C@@H](Oc1cc(-c2cnn(C3CCNCC3)c2)cnc1N)c1c(Cl)ccc(F)c1Cl [Crizotinib] (partner 1 µM)
Procedure, shortened: (§1)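 For relative viability, nuclei counts in treated wells were divided by those in vehicle wells. Lung cancer cell lines had been pin-tool dosed in 1536-well plates the day after seeding and cultured for 5 days, then fixed and stained in one step (final 0.05% Triton X-100, 1% formaldehyde, 1 ug/ml Hoechst) and imaged at 4×. Doses were one drug alone or a fixed anchor-drug dose plus five library-drug doses (not always all listed) in √10 steps, and values are duplicate-plate medians.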

Sunitinib + Alpelisib = compound: CCN(CC)CCNC(=O)c1c(C)[nH]c(/C=C2\C(=O)Nc3ccc(F)cc32)c1C [Sunitinib] + Cc1nc(NC(=O)N2CCC[C@H]2C(N)=O)sc1-c1ccnc(C(C)(C)C(F)(F)F)c1 [Alpelisib] (partner 2 µM)
Procedure, shortened: as §1

Sunitinib + Lapatinib = compound: CCN(CC)CCNC(=O)c1c(C)[nH]c(/C=C2\C(=O)Nc3ccc(F)cc32)c1C [Sunitinib] + CS(=O)(=O)CCNCc1ccc(-c2ccc3ncnc(Nc4ccc(OCc5cccc(F)c5)c(Cl)c4)c3c2)o1 [Lapatinib] (partner 2 µM)
Procedure, shortened: as §1

Sunitinib + Foretinib = compound: CCN(CC)CCNC(=O)c1c(C)[nH]c(/C=C2\C(=O)Nc3ccc(F)cc32)c1C [Sunitinib] + COc1cc2c(Oc3ccc(NC(=O)C4(C(=O)Nc5ccc(F)cc5)CC4)cc3F)ccnc2cc1OCCCN1CCOCC1 [Foretinib] (partner 0.25 µM)
Procedure, shortened: as §1

Sunitinib + Bortezomib = compound: CCN(CC)CCNC(=O)c1c(C)[nH]c(/C=C2\C(=O)Nc3ccc(F)cc32)c1C [Sunitinib] + CC(C)C[C@H](NC(=O)[C@H](Cc1ccccc1)NC(=O)c1cnccn1)B(O)O [Bortezomib] (partner 0.002 µM)
Procedure, shortened: as §1

Sunitinib + Navitoclax = compound: CCN(CC)CCNC(=O)c1c(C)[nH]c(/C=C2\C(=O)Nc3ccc(F)cc32)c1C [Sunitinib] + CC1(C)CCC(c2ccc(Cl)cc2)=C(CN2CCN(c3ccc(C(=O)NS(=O)(=O)c4ccc(N[C@H](CCN5CCOCC5)CSc5ccccc5)c(S(=O)(=O)C(F)(F)F)c4)cc3)CC2)C1 [Navitoclax] (partner 0.5 µM)
Procedure, shortened: as §1

Sunitinib + Linsitinib = compound: CCN(CC)CCNC(=O)c1c(C)[nH]c(/C=C2\C(=O)Nc3ccc(F)cc32)c1C [Sunitinib] + C[C@]1(O)C[C@@H](c2nc(-c3ccc4ccc(-c5ccccc5)nc4c3)c3c(N)nccn32)C1 [Linsitinib] (partner 1 µM)
Procedure, shortened: as §1

Sunitinib + Olaparib = compound: CCN(CC)CCNC(=O)c1c(C)[nH]c(/C=C2\C(=O)Nc3ccc(F)cc32)c1C [Sunitinib] + O=C(c1cc(Cc2n[nH]c(=O)c3ccccc23)ccc1F)N1CCN(C(=O)C2CC2)CC1 [Olaparib] (partner 8 µM)
Procedure, shortened: as §1

Sunitinib + Pictilisib = compound: CCN(CC)CCNC(=O)c1c(C)[nH]c(/C=C2\C(=O)Nc3ccc(F)cc32)c1C [Sunitinib] + CS(=O)(=O)N1CCN(Cc2cc3nc(-c4cccc5[nH]ncc45)nc(N4CCOCC4)c3s2)CC1 [Pictilisib] (partner 1 µM)
Procedure, shortened: as §1

Sunitinib = compound: CCN(CC)CCNC(=O)c1c(C)[nH]c(/C=C2\C(=O)Nc3ccc(F)cc32)c1C [Sunitinib]
Procedure, shortened: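 Five library-drug doses, separated by factors of √10, were pinned into 1536-well plates holding lung cancer cell lines after an overnight stay at 37 °C. Cells were fixed, permeabilised and Hoechst-stained in one step after 5 days without medium change, then imaged at 4×. Viability compares treated-well with vehicle-well nuclei, counted in MetaXpress, as a median across plates. Passing plates had control CV below 25% and at least one doubling.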

Sunitinib + Tozasertib = compound: CCN(CC)CCNC(=O)c1c(C)[nH]c(/C=C2\C(=O)Nc3ccc(F)cc32)c1C [Sunitinib] + Cc1cc(Nc2cc(N3CCN(C)CC3)nc(Sc3ccc(NC(=O)C4CC4)cc3)n2)n[nH]1 [Tozasertib] (partner 0.1 µM)
Procedure, shortened: as §1

Sunitinib + Dasatinib = compound: CCN(CC)CCNC(=O)c1c(C)[nH]c(/C=C2\C(=O)Nc3ccc(F)cc32)c1C [Sunitinib] + Cc1nc(Nc2ncc(C(=O)Nc3c(C)cccc3Cl)s2)cc(N2CCN(CCO)CC2)n1 [Dasatinib] (partner 0.075 µM)
Procedure, shortened: as §1

Sunitinib + Phenformin = compound: CCN(CC)CCNC(=O)c1c(C)[nH]c(/C=C2\C(=O)Nc3ccc(F)cc32)c1C [Sunitinib] + N=C(N)NC(=N)NCCc1ccccc1 [Phenformin] (partner 250 µM)
Procedure, shortened: as §1

Sunitinib + OSI-027 = compound: CCN(CC)CCNC(=O)c1c(C)[nH]c(/C=C2\C(=O)Nc3ccc(F)cc32)c1C [Sunitinib] + COc1cccc2cc(-c3nc([C@H]4CC[C@H](C(=O)O)CC4)n4ncnc(N)c34)[nH]c12 [OSI-027] (partner 0.5 µM)
Procedure, shortened: as §1

Sunitinib + Luminespib = compound: CCN(CC)CCNC(=O)c1c(C)[nH]c(/C=C2\C(=O)Nc3ccc(F)cc32)c1C [Sunitinib] + CCNC(=O)c1noc(-c2cc(C(C)C)c(O)cc2O)c1-c1ccc(CN2CCOCC2)cc1 [Luminespib] (partner 0.01 µM)
Procedure, shortened: as §1

EBC-1
relative viability (Sunitinib + Crizotinib; first compound 0.02 µM): 0.171 | relative viability (Sunitinib + Crizotinib; first compound 0.06325 µM): 0.178 | relative viability (Sunitinib + Crizotinib; first compound 0.2 µM): 0.216 | relative viability (Sunitinib + Crizotinib; first compound 0.6325 µM): 0.183 | relative viability (Sunitinib + Crizotinib; first compound 2 µM): 0.19 | relative viability (Sunitinib + Alpelisib; first compound 0.02 µM): 0.857 | relative viability (Sunitinib + Alpelisib; first compound 0.06325 µM): 0.971 | relative viability (Sunitinib + Alpelisib; first compound 0.2 µM): 0.871 | relative viability (Sunitinib + Alpelisib; first compound 0.6325 µM): 0.87 | relative viability (Sunitinib + Alpelisib; first compound 2 µM): 1 | relative viability (Sunitinib + Lapatinib; first compound 0.02 µM): 0.227 | relative viability (Sunitinib + Lapatinib; first compound 0.06325 µM): 0.198 | relative viability (Sunitinib + Lapatinib; first compound 0.2 µM): 0.224 | relative viability (Sunitinib + Lapatinib; first compound 0.6325 µM): 0.215 | relative viability (Sunitinib + Lapatinib; first compound 2 µM): 0.202 | relative viability (Sunitinib + Foretinib; first compound 0.02 µM): 0.101 | relative viability (Sunitinib + Foretinib; first compound 0.06325 µM): 0.112 | relative viability (Sunitinib + Foretinib; first compound 0.2 µM): 0.0979 | relative viability (Sunitinib + Foretinib; first compound 0.6325 µM): 0.112 | relative viability (Sunitinib + Foretinib; first compound 2 µM): 0.119 | relative viability (Sunitinib + Bortezomib; first compound 0.02 µM): 0.475 | relative viability (Sunitinib + Bortezomib; first compound 0.06325 µM): 0.573 | relative viability (Sunitinib + Bortezomib; first compound 0.2 µM): 0.65 | relative viability (Sunitinib + Bortezomib; first compound 0.6325 µM): 0.532 | relative viability (Sunitinib + Bortezomib; first compound 2 µM): 0.534 | relative viability (Sunitinib + Navitoclax; first compound 0.02 µM): 0.467 | relative viability (Sunitinib + Navitoclax; first compound 0.06325 µM): 0.472 | relative viability (Sunitinib + Navitoclax; first compound 0.2 µM): 0.417 | relative viability (Sunitinib + Navitoclax; first compound 0.6325 µM): 0.557 | relative viability (Sunitinib + Navitoclax; first compound 2 µM): 0.626 | relative viability (Sunitinib + Linsitinib; first compound 0.02 µM): 0.9 | relative viability (Sunitinib + Linsitinib; first compound 0.06325 µM): 0.972 | relative viability (Sunitinib + Linsitinib; first compound 0.2 µM): 1.01 | relative viability (Sunitinib + Linsitinib; first compound 0.6325 µM): 0.993 | relative viability (Sunitinib + Linsitinib; first compound 2 µM): 0.957 | relative viability (Sunitinib + Olaparib; first compound 0.02 µM): 0.758 | relative viability (Sunitinib + Olaparib; first compound 0.06325 µM): 0.689 | relative viability (Sunitinib + Olaparib; first compound 0.2 µM): 0.727 | relative viability (Sunitinib + Olaparib; first compound 0.6325 µM): 0.726 | relative viability (Sunitinib + Olaparib; first compound 2 µM): 0.739 | relative viability (Sunitinib + Pictilisib; first compound 0.02 µM): 0.41 | relative viability (Sunitinib + Pictilisib; first compound 0.06325 µM): 0.377 | relative viability (Sunitinib + Pictilisib; first compound 0.2 µM): 0.463 | relative viability (Sunitinib + Pictilisib; first compound 0.6325 µM): 0.411 | relative viability (Sunitinib + Pictilisib; first compound 2 µM): 0.46 | relative viability (Sunitinib; 0.02 µM): 0.965 | relative viability (Sunitinib; 0.2 µM): 1.12 | relative viability (Sunitinib; 0.6325 µM): 1.09 | relative viability (Sunitinib; 2 µM): 1.01

NCI-H1623
relative viability (Sunitinib + Tozasertib; first compound 0.02 µM): 0.461 | relative viability (Sunitinib + Tozasertib; first compound 0.06325 µM): 0.434 | relative viability (Sunitinib + Tozasertib; first compound 0.2 µM): 0.446 | relative viability (Sunitinib + Tozasertib; first compound 0.6325 µM): 0.488 | relative viability (Sunitinib + Tozasertib; first compound 2 µM): 0.369 | relative viability (Sunitinib + Dasatinib; first compound 0.02 µM): 0.612 | relative viability (Sunitinib + Dasatinib; first compound 0.06325 µM): 0.507 | relative viability (Sunitinib + Dasatinib; first compound 0.2 µM): 0.574 | relative viability (Sunitinib + Dasatinib; first compound 0.6325 µM): 0.58 | relative viability (Sunitinib + Dasatinib; first compound 2 µM): 0.543 | relative viability (Sunitinib + Foretinib; first compound 0.02 µM): 0.83 | relative viability (Sunitinib + Foretinib; first compound 0.06325 µM): 0.843 | relative viability (Sunitinib + Foretinib; first compound 0.2 µM): 0.955 | relative viability (Sunitinib + Foretinib; first compound 0.6325 µM): 0.977 | relative viability (Sunitinib + Foretinib; first compound 2 µM): 0.872 | relative viability (Sunitinib + Phenformin; first compound 0.02 µM): 0.649 | relative viability (Sunitinib + Phenformin; first compound 0.06325 µM): 0.499 | relative viability (Sunitinib + Phenformin; first compound 0.2 µM): 0.581 | relative viability (Sunitinib + Phenformin; first compound 0.6325 µM): 0.675 | relative viability (Sunitinib + Phenformin; first compound 2 µM): 0.49 | relative viability (Sunitinib + OSI-027; first compound 0.02 µM): 0.45 | relative viability (Sunitinib + OSI-027; first compound 0.06325 µM): 0.393 | relative viability (Sunitinib + OSI-027; first compound 0.2 µM): 0.474 | relative viability (Sunitinib + OSI-027; first compound 0.6325 µM): 0.407 | relative viability (Sunitinib + OSI-027; first compound 2 µM): 0.358 | relative viability (Sunitinib + Luminespib; first compound 0.02 µM): 0.545 | relative viability (Sunitinib + Luminespib; first compound 0.06325 µM): 0.545 | relative viability (Sunitinib + Luminespib; first compound 0.2 µM): 0.682 | relative viability (Sunitinib + Luminespib; first compound 0.6325 µM): 0.611 | relative viability (Sunitinib + Luminespib; first compound 2 µM): 0.464 | relative viability (Sunitinib; 0.02 µM): 0.98 | relative viability (Sunitinib; 0.06325 µM): 0.96 | relative viability (Sunitinib; 0.2 µM): 0.994 | relative viability (Sunitinib; 2 µM): 0.916
